# Where a name gives a salt, the structure may show the parent alone.
# Target: T1, HCV polymerase (Hepatitis C virus genotype 1b, UniProt P26663)
# T1 construct: a region encoding NS5B (J Virol 1991 March, 65(3), 1105-13, 544 amino acids after deletion of 47 amino acids on the C-terminal); 6xHis (C); made in house; host or cells: Escherichia coli
# Test: biochemical
# Design: species or system HCV BK strain
# Conditions: not given
# Procedure, shortened: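 His-tagged NS5B (BK strain, 47-aa C-terminal deletion, E. coli-expressed) at 0.5 μg/ml copied 5 μg/ml run-off RNA bearing the HCV 3′ UTR with 2 μM UTP plus [3H]UTP, 50 μM ATP/GTP, in pH 7.5 Tris with 5 mM MgCl2, 25 °C, 90 min. TCA-precipitated RNA was counted and IC50 calculated.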
# T1 sequence (P26663 2420-2963): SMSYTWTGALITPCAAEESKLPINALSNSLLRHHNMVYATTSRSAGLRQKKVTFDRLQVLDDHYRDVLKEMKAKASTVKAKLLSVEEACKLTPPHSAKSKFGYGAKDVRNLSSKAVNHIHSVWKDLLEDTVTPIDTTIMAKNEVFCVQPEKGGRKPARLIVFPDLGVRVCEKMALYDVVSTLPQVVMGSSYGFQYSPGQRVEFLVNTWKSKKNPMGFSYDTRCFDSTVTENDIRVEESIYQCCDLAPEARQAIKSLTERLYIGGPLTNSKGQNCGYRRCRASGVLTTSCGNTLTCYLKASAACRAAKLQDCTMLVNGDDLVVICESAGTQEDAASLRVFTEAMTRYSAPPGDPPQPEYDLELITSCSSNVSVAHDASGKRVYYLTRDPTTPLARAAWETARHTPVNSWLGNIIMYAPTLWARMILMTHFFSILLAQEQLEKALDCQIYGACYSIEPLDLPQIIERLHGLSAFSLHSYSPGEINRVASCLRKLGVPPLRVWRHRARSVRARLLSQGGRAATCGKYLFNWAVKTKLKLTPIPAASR
row,Compound,IC50 [nM]
1,"COC[C@H]1CCCN(CCN2CCn3c(c(C4CCCCC4)c4ccc(C(=O)O)cc43)-c3ccc(C)cc32)C1 [Example 1-417, 13-cyclohexyl-5-[2-((S)-3-methoxymethylpiperidin-1-yl)ethyl]-3-methyl-6,7-dihydro-5H-benzo[5,6][1,4]diazepino[7,1-a]indole-10-carboxylic acid dihydrochloride]",< 100
2,"CS(=O)(=O)c1cccc(COc2ccc3c(c2)N(CCN2CCCCC2)CCn2c-3c(C3CCCCC3)c3ccc(C(=O)O)cc32)c1 [Example 1-418, 13-cyclohexyl-3-(3-methanesulfonylbenzyloxy)-5-[2-(piperidin-1-yl)ethyl]-6,7-dihydro-5H-benzo[5,6][1,4]diazepino[7,1-a]indole-10-carboxylic acid dihydrochloride]",< 100
3,"CC[C@@H]1CCCN(CCN2CCn3c(c(C4CCCCC4)c4ccc(C(=O)O)cc43)-c3ccc(C)cc32)C1 [Example 1-420, 13-cyclohexyl-5-[2-((R)-3-ethylpiperidin-1-yl)ethyl]-3-methyl-6,7-dihydro-5H-benzo[5,6][1,4]diazepino[7,1-a]indole-10-carboxylic acid dihydrochloride]",< 100
4,"CC[C@H]1CCCN(CCN2CCn3c(c(C4CCCCC4)c4ccc(C(=O)O)cc43)-c3ccc(C)cc32)C1 [Example 1-422, 13-cyclohexyl-5-[2-((S)-3-ethylpiperidin-1-yl)ethyl]-3-methyl-6,7-dihydro-5H-benzo[5,6][1,4]diazepino[7,1-a]indole-10-carboxylic acid dihydrochloride]",< 100
5,"CCN(CC)CCCCN1CCn2c(c(C3CCCCC3)c3ccc(C(=O)O)cc32)-c2ccc(Cl)cc21 [Example 1-424, 3-chloro-13-cyclohexyl-5-(4-diethylaminobutyl)-6,7-dihydro-5H-benzo[5,6][1,4]diazepino[7,1-a]indole-10-carboxylic acid]",< 100
6,"Cc1ccc2c(c1)N(CCCCN1CCCCC1)CCn1c-2c(C2CCCCC2)c2ccc(C(=O)O)cc21 [Example 1-425, 13-cyclohexyl-3-methyl-5-[4-(piperidin-1-yl)butyl]-6,7-dihydro-5H-benzo[5,6][1,4]diazepino[7,1-a]indole-10-carboxylic acid dihydrochloride]",< 100
7,"CN1CCCC1CCN1CCn2c(c(C3CCCCC3)c3ccc(C(=O)O)cc32)-c2ccc(Cl)cc21 (centres unmarked) [Example 1-426, 3-chloro-13-cyclohexyl-5-[2-(1-methylpyrrolidin-2-yl)ethyl]-6,7-dihydro-5H-benzo[5,6][1,4]diazepino[7,1-a]indole-10-carboxylic acid dihydrochloride]",< 100
8,"CCOc1ccc2c(c1)N(CCN1CCC[C@@H](CCOC)C1)CCn1c-2c(C2CCCCC2)c2ccc(C(=O)O)cc21 [Example 1-427, 13-cyclohexyl-3-ethoxy-5-{2-[(S)-3-(2-methoxyethyl)piperidin-1-yl]ethyl}-6,7-dihydro-5H-benzo[5,6][1,4]diazepino[7,1-a]indole-10-carboxylic acid dihydrochloride]",< 100
9,"CCCN(CC)CCCN1CCn2c(c(C3CCCCC3)c3ccc(C(=O)O)cc32)-c2ccc(Cl)cc21 [Example 1-428, 3-chloro-13-cyclohexyl-5-[3-(N-ethyl-N-propylamino)propyl]-6,7-dihydro-5H-benzo[5,6][1,4]diazepino[7,1-a]indole-10-carboxylic acid dihydrochloride]",< 100
10,"CC(C)N(CCCN1CCn2c(c(C3CCCCC3)c3ccc(C(=O)O)cc32)-c2ccc(Cl)cc21)C(C)C [Example 1-429, 3-chloro-13-cyclohexyl-5-(3-diisopropylaminopropyl)-6,7-dihydro-5H-benzo[5,6][1,4]diazepino[7,1-a]indole-10-carboxylic acid dihydrochloride]",< 100
11,"CCc1ccc2c(c1)N(CCN1CCC[C@@H](CCOC)C1)CCn1c-2c(C2CCCCC2)c2ccc(C(=O)O)cc21 [Example 1-430, 13-cyclohexyl-3-ethyl-5-{2-[(S)-3-(2-methoxyethyl)piperidin-1-yl]ethyl}-6,7-dihydro-5H-benzo[5,6][1,4]diazepino[7,1-a]indole-10-carboxylic acid dihydrochloride]",< 100
12,"CCN(CCCN1CCn2c(c(C3CCCCC3)c3ccc(C(=O)O)cc32)-c2ccc(Cl)cc21)CCOC [Example 1-431, 3-chloro-13-cyclohexyl-5-{3-[N-ethyl-N-(2-methoxyethyl)amino]propyl}-6,7-dihydro-5H-benzo[5,6][1,4]diazepino[7,1-a]indole-10-carboxylic acid dihydrochloride]",< 100
13,"CCN(CCCOC)CCCN1CCn2c(c(C3CCCCC3)c3ccc(C(=O)O)cc32)-c2ccc(Cl)cc21 [Example 1-432, 3-chloro-13-cyclohexyl-5-{3-[N-ethyl-N-(3-methoxypropyl)amino]propyl}-6,7-dihydro-5H-benzo[5,6][1,4]diazepino[7,1-a]indole-10-carboxylic acid dihydrochloride]",< 100
14,"CCOCCCN(CC)CCCN1CCn2c(c(C3CCCCC3)c3ccc(C(=O)O)cc32)-c2ccc(Cl)cc21 [Example 1-433, 3-chloro-13-cyclohexyl-5-{3-[N-(3-ethoxypropyl)-N-ethylamino]propyl}-6,7-dihydro-5H-benzo[5,6][1,4]diazepino[7,1-a]indole-10-carboxylic acid dihydrochloride]",< 100
15,"COCC[C@@H]1CCCN(CCN2CCn3c(c(C4CCCCC4)c4ccc(C(=O)O)cc43)-c3ccc(F)cc32)C1 [Example 1-434, 13-cyclohexyl-3-fluoro-5-{2-[(S)-3-(2-methoxyethyl)piperidin-1-yl]ethyl}-6,7-dihydro-5H-benzo[5,6][1,4]diazepino[7,1-a]indole-10-carboxylic acid dihydrochloride]",< 100
16,"Cc1ccc2c(c1)N(CCN1CCCC(CO)C1)CCn1c-2c(C2CCCCC2)c2ccc(C(=O)O)cc21 (centres unmarked) [Example 1-435, 13-cyclohexyl-5-[2-(3-hydroxymethylpiperidin-1-yl)ethyl]-3-methyl-6,7-dihydro-5H-benzo[5,6][1,4]diazepino[7,1-a]indole-10-carboxylic acid dihydrochloride]",< 100
17,"CCN(CC)CC(C)(C)CN1CCn2c(c(C3CCCCC3)c3ccc(C(=O)O)cc32)-c2ccc(Cl)cc21 [Example 1-436, 3-chloro-13-cyclohexyl-5-(3-diethylamino-2,2-dimethylpropyl)-6,7-dihydro-5H-benzo[5,6][1,4]diazepino[7,1-a]indole-10-carboxylic acid dihydrochloride]",< 100
18,"CN1CCn2c(c(C3CCCCC3)c3ccc(C(=O)O)cc32)-c2ccc(OCCN3CCCCC3)cc21 [Example 1-437, 13-cyclohexyl-5-methyl-3-[2-(piperidin-1-yl)ethoxy]-6,7-dihydro-5H-benzo[5,6][1,4]diazepino[7,1-a]indole-10-carboxylic acid dihydrochloride]",< 100
19,"CN1CCn2c(c(C3CCCCC3)c3ccc(C(=O)O)cc32)-c2ccc(OCCC3CCNCC3)cc21 [Example 1-438, 13-cyclohexyl-5-methyl-3-[2-(piperidin-4-yl)ethoxy]-6,7-dihydro-5H-benzo[5,6][1,4]diazepino[7,1-a]indole-10-carboxylic acid dihydrochloride]",< 100
20,"CN1CCC(CCOc2ccc3c(c2)N(C)CCn2c-3c(C3CCCCC3)c3ccc(C(=O)O)cc32)CC1 [Example 1-439, 13-cyclohexyl-5-methyl-3-[2-(1-methylpiperidin-4-yl)ethoxy]-6,7-dihydro-5H-benzo[5,6][1,4]diazepino[7,1-a]indole-10-carboxylic acid dihydrochloride]",< 100
21,"Cc1ccc2c(c1)N(CCN1CCCC(C)(C)C1)CCn1c-2c(C2CCCCC2)c2ccc(C(=O)O)cc21 [Example 1-440, 13-cyclohexyl-5-[2-(3,3-dimethylpiperidin-1-yl)ethyl]-3-methyl-6,7-dihydro-5H-benzo[5,6][1,4]diazepino[7,1-a]indole-10-carboxylic acid dihydrochloride]",< 100
22,"CCN(CC)CC(CN1CCn2c(c(C3CCCCC3)c3ccc(C(=O)O)cc32)-c2ccc(Cl)cc21)OC (centres unmarked) [Example 1-441, 3-chloro-13-cyclohexyl-5-(3-diethylamino-2-methoxypropyl)-6,7-dihydro-5H-benzo[5,6][1,4]diazepino[7,1-a]indole-10-carboxylic acid dihydrochloride]",< 100
23,"CCN(CCO)CCCN1CCn2c(c(C3CCCCC3)c3ccc(C(=O)O)cc32)-c2ccc(Cl)cc21 [Example 1-442, 3-chloro-13-cyclohexyl-5-{3-[N-ethyl-N-(2-hydroxyethyl)amino]propyl}-6,7-dihydro-5H-benzo[5,6][1,4]diazepino[7,1-a]indole-10-carboxylic acid dihydrochloride]",< 100
24,"Cc1ccc2c(c1)N(CCN1CCC(CO)CC1)CCn1c-2c(C2CCCCC2)c2ccc(C(=O)O)cc21 [Example 1-443, 13-cyclohexyl-5-[2-(4-hydroxymethylpiperidin-1-yl)ethyl]-3-methyl-6,7-dihydro-5H-benzo[5,6][1,4]diazepino[7,1-a]indole-10-carboxylic acid dihydrochloride]",< 100
25,"O=C(O)c1ccc2c(C3CCCCC3)c3n(c2c1)CCN(CCN1CCC[C@@H](CCOc2ccccc2)C1)c1ccccc1-3 [Example 1-444, 13-cyclohexyl-5-{2-[(S)-3-(2-phenoxyethyl)piperidin-1-yl]ethyl}-6,7-dihydro-5H-benzo[5,6][1,4]diazepino[7,1-a]indole-10-carboxylic acid dihydrochloride]",< 100

# Same assay, conditions: read-out: HCV polymerase inhibitory activity IC50; 25° C., 90 min; [5,6-3H]UTP incorporation into RNA
row,Compound,IC50 [nM]
1,"O=C(O)c1ccc2c(C3CCCCC3)c3n(c2c1)CCN(CCN1CCCCCCC1)c1ccccc1-3 [Example 1-423, 5-[2-(azocan-1-yl)ethyl]-13-cyclohexyl-6,7-dihydro-5H-benzo[5,6][1,4]diazepino[7,1-a]indole-10-carboxylic acid dihydrochloride]",< 100

# Reference: US20070049593A1 (priority 2004, published 2007)
